Test results: patent publication US20220233238A1, “DELIVERY CATHETER AND METHOD OF DISEASE TREATMENT” (Neurotronic, Inc., priority 2019, published 2022)
Several values for one entry are separate records, joined by “and”; a condition that tells them apart may be missing. Identical values can stand only once. Entries after “also recorded” stand apart in the source; their conditions may differ. Like-named read-outs stand apart in the source and are kept apart here.

What was measured:
[1] = tested on: hepatic, splenic, celiac, right renal and left renal arteries; settings: patient B; for fasting glucose: base 186 mg/dL
Procedure: (§1) In another example, multiple arteries/tissues were treated for hypertension. […] Patient B had 5 years of hypertension history. Patient B went through the same procedure and ablation treatment method as patient A in Example 3.
In another example, multiple arteries/tissues were treated for diabetes.

renal artery = test: Pre-clinical trial: renal artery ethanol ablation (renal denervation) with triple-needle single-balloon catheter
[2] = tested on: hepatic, splenic, celiac, right renal and left renal arteries; settings: patient B; for Body weight: base 83 kg
Procedure: as §1
In another example, multiple arteries/tissues were treated for managing body weight. The patient B with 3 years of obesity history had their body weight improved after the ablation procedure. The treated multiple arteries were hepatic, splenic, celiac, right renal and left renal arteries.

[3] = tested on: hepatic, splenic, celiac, right renal and left renal arteries; settings: patient B; for average 24-hour ambulatory blood pressure, DBP: base 79; for average 24-hour ambulatory blood pressure, SBP: base 136
Procedure: as §1

[4] = tested on: renal arteries, hepatic artery, splenic artery, and the left gastric artery; settings: patient A; for Body weight: base 103 kg; for 24-Hour blood pressure, DBP / 24-Hour blood pressure, SBP: average 24-hour ambulatory; for 24-Hour blood pressure, DBP: base 109; for 24-Hour blood pressure, SBP: base 164; for High-density lipoprotein (HDL): base 39 mg/dL; for Triglycerides: base 336 mg/dL
Procedure: The targeted arteries for their treatment were renal arteries, hepatic artery, splenic artery, and the left gastric artery.
In the procedure, modest sedation per the institution's standard practice was used and no general anesthesia was used. The arteries were engaged using a 7F guiding catheter, introduced via the femoral artery. Angiography was performed of the arteries before intervention. All four arteries were treated in the same procedure. The treatment started at upper body arteries in the order of splenic, hepatic, left gastric, left renal, and right renal arteries. After the initial angiography survey of the hepatic artery, splenic artery and left gastric artery, the rapid-exchange version of the triple-needle single-balloon catheter was advanced through the guiding catheter and into the artery over a guiding wire.
The maximum catheter needle span diameter was about 12 mm, and the span diameter was adjustable per artery diameter. […] The function of this balloon was to center the distal head/shaft without over-stretching the artery.
The infusion time was within 10 seconds for each application. […] The treatment steps were repeated for the second treatment (balloon inflation, needle deployment, infusion ablation, needle withdrawal, balloon deflation). The total volume of the alcohol used in the two treatments was 1.2 mL for the splenic artery.
The same treatment method and procedure steps as in the treatment of the splenic artery were used for common hepatic artery ablation. The catheter was replaced with a fresh catheter for the common hepatic artery ablation. There were two treatments total at about 15 mm apart of each other (between the treatment sites) for the common hepatic artery with the same ablation dosage of 0.6 mL. The total volume of the alcohol used for the hepatic artery ablation was 1.2 mL. After the hepatic treatment, the catheter was placed into the left gastric artery for next ablation treatment. Again, the same treatment method and procedure was used, with the exception that one ablation treatment of 0.6 mL of the alcohol was applied for the left gastric artery. Angiography was performed after the withdrawal of the triple-needle balloon delivery catheter.
After the ablation treatments of the three arteries above, angiography was performed of the renal arteries before intervention. The suitable branches and main arteries were assessed and predetermined for treatment. After the assessment, the triple-needle balloon delivery catheter was advanced through the guiding catheter and over the guiding wire into the branch artery of left renal arteries and stopped just beyond the bifurcated area.

hepatic artery = test: Pre-clinical trial: hepatic artery ethanol ablation (hepatic denervation) with triple-needle single-balloon catheter
[5] = maintained at 3 months follow-up

renal arterial spasms (post-ablation renal angiograms) (renal artery; during and after the infusion treatment): no significant renal arterial spasms
arterial spasms (hepatic angiograms) (hepatic artery; during and after the infusion treatment, both animals): no significant arterial spasms
SMILES: CCO [ethanol]
fasting glucose level change from baseline ([1]; 1-month follow-up): −50%
fasting glucose ([1]; 1 mo): 92 mg/dL
fasting glucose level change from baseline ([1]; 2 weeks follow-up): −32%
fasting glucose ([1]; 2 wks): 127 mg/dL
HbA1c improvement from the baseline, absolute value ([1]; 3 months after the procedure): −2.1%
HbA1c percent reduction ([1]; 3 months after the procedure, relative to baseline): ~26%
fasting glucose level reduction from the baseline ([1]; 3 months follow-up): −41%
fasting glucose ([1]; 3 mos): 110 mg/dL
Blood sugar HbA1c ([1]; 3 mos, base 8.1%): 6.0%
histopathologic evaluation of renal arteries and surrounding tissues (renal artery; after ethanol ablation, FIG. 11): renal nerve injury; also recorded: severed renal nerves necrosis
average renal tissue NE content, treated side (renal artery; porcine renal cortex, two weeks after treatment, HPLC, control side 87 ng/g): 4.9 ng/g
reduction in renal norepinephrine concentration (renal artery; porcine, two weeks after treatment, treated side vs contralateral untreated renal artery side (control 87 ng/g), total 1.8 mL): 94%
gross necropsy (renal artery; two weeks after treatment): all treatment related organs were normal
Body weight ([2]; 1 mo): 79.9 kg
initial body weight loss from the baseline ([2]; 2 weeks follow-up): −4.5%
Body weight ([2]; 2 wks): 79.3 kg
Body weight ([2]; 3 mos): 79.1 kg
average 24-hour ambulatory blood pressure, DBP ([3]; 1 mo): 61 mmHg
average 24-hour ambulatory blood pressure, SBP ([3]; 1 mo): 107 mmHg
diastolic (DBP) blood pressure drop from the baseline ([3]; 1 month follow-up): ~23%
systolic (SBP) blood pressure drop from the baseline ([3]; 1 month follow-up): about 21%
average 24-hour ambulatory blood pressure, DBP ([3]; 3-mo): 66 mmHg
average 24-hour ambulatory blood pressure, SBP ([3]; 3-mo): 115 mmHg
DBP percentage drop from baseline level ([3]; 3 month follow-up): about 15%
SBP percentage drop from baseline level ([3]; 3 month follow-up): about 15%
Body weight ([4]; 1 mo post-procedure): 95.6 kg
24-Hour blood pressure, DBP ([4]; 1 mo): 87 mmHg
24-Hour blood pressure, SBP ([4]; 1 mo): 140 mmHg
High-density lipoprotein (HDL) ([4]; 1 mo): 43 mg/dL
Triglycerides ([4]; 1 mo): 139 mg/dL
Body weight ([4]; 2 wk post-procedure): 96.2 kg
High-density lipoprotein (HDL) ([4]; 2 wks): 42 mg/dL
Triglycerides ([4]; 2 wks): 160 mg/dL
TG/HDL ratio ([4]; 3-month follow-up, 8.6 at baseline, normal range <5): 4.2
24-Hour blood pressure, DBP ([4]; 3 mo): 84 mmHg
24-Hour blood pressure, SBP ([4]; 3 mo): 141 mmHg
HbA1c value change vs baseline ([4]; 3 months follow-up, absolute change): ~−1%
Body weight ([4]; 3 mos post-procedure): 96.2 kg
High-density lipoprotein (HDL) ([4]; 3 mos): 40 mg/dL
Triglycerides ([4]; 3 mos): 167 mg/dL
Blood sugar level, HbA1c ([4]; 3 mos, base 7.5%): 6.6%
weight loss, reduction ([4]; since week 3 (2 wk time point), maintained at 3 months): about 7%
triglyceride level reduction ([4]; two weeks follow-up): about 50%
diastolic (DBP) blood pressure drop from the baseline [4, 5]: ~20%
systolic (SBP) blood pressure drop from the baseline [4, 5]: about 14%
average liver NE concentration reduction (hepatic artery; one value per animal (two animals), two weeks after treatment, vs untreated control animal, 2 x 0.6 mL): 85% and 94%
gross necropsy (hepatic artery; two weeks after the treatment): all treatment related organs were normal
